In experiment [1] the test system is TGF-β-activated Smad2/3 signaling. In words: Western blot for phosphorylated Smad2/3 (canonical TGF-β-activated signaling) in primary macrophages/microglia. Format: cell-based, mouse. As to conditions: for TGF-β1-induced Smad2/3 phosphorylation: peripheral macrophages pre-treated 1 h with 0.1, 1.0 or 10.0 μM ALK5 inhibitor, then TGF-β1 5 ng/mL for 30 min (FIG. 9A); for phosphorylated Smad2/3 after TGF-β1 challenge: TGF-β1 1, 5 or 10 ng/ml with or without LPS 50 ng/ml, 30 min (FIG. 7A). The method, then:
(§1) Cortical microglia were isolated from neonatal (1-2 day-old) CD11c-DNR or wild-type C57BL/6 mice according to previously published methods (Tan et al., 1999 Science 286: 2352-2355; Town et al., 2006 J. Immunol, 176: 3804-3812), Briefly, brains were isolated under sterile conditions and cerebral cortices were incubated in tripsin-EDTA (Invitrogen-Gibco) for 15 min at 37° C. Complete RPMI 1640 medium (supplemented with 10% FCS and 1 mM penicillin-streptomycin) was then added and brains were dissociated by trituration. Subsequently, cerebral cortex material was plated in 25 cm^2 flasks (Fisher Scientific), and the media was changed every 2-3 days. When the appearance of microglia was noted (typically 14 days after plating), culture media was exchanged with RPMI 1640 medium supplemented with 5% FCS, and the microglia were isolated by shaking in an incubator-shaker at 200 rpm for 2 h at 37° C. Peripheral MΦ were isolated from adult CD11c-DNR or wild-type C57BL/6 mice according to standard immunological methods by intraperitoneally (i.p.) injecting mice with 900 μL of 3% (w/v) sterile thioglycollate solution diluted in PBS. Four days later, mice were injected i.p. with 10 mL of ice-cold PBS for peritoneal lavage. Peripheral MΦ were then plated with complete medium (DMEM supplemented with 10% FCS and 1 mM penicillin streptomycin) and allowed to rest overnight. […] Microglia or peripheral MΦ from wild-type or CD11c-DNR mice were plated at 1×10^6 cells/well in 6-well tissue culture plates (BD Biosciences-Falcon) containing complete RPMI 1640 media or complete DMEM, respectively. These cells were then treated with a dose-range of recombinant TGF-β1 (R&D Systems; 1, 5, or 10 ng/mL) in the presence or absence of lipopolysachharide (LPS, 50 ng/mL) for 30 min. In a separate set of experiments, these cells were pre-treated for 1 h with ALK5 inhibitors SB-505124 or SB-431542 (Sigma-Aldrich; used at 0.1, 1.0, or 10.0 μM) and 5 ng/mL of recombinant TGF-β1 was added. For Aβ phagocytosis assay, MΦ were pulse-chased with Aβ as described elsewhere herein. Cells were rinsed in ice-cold PBS three times, and lysed ice-cold lysis buffer (containing 20 mM Tris-HCl pH 7.5, 150 mM NaCl, 1 mM Na2EDTA, 1 mM EGTA, 1% v/v Triton X-100, 2.5 mM sodium pyrophosphate, 1 mM glycerophosphate, 1 mM Na3VO4, 1 μg/ml leupeptin, and 1 mM PMSF). After lysis for 30 min on ice, cell lysates were centrifuged at 15,000×g for 30 min, and supernatants were aliquoted for Western blot analysis. Protein concentration was determined using the Bradford method, and aliquots corresponding to 50 μg of protein were run out on 12% Nu-PAGE™ polyacrylamide gels (Invitrogen) and proteins were transferred electrophoretically to Immobilon-P polyvinylidene difluoride membranes (Millipore). Membranes were blocked in blocking buffer (5% w/v nonfat dry milk in Tris-buffered saline containing 1% v/v Tween-20) for 3 h at ambient temperature and incubated overnight at 4° C. with primary polyclonal antibodies directed against total or phosphorylated SMAD2/3, SMAD1/5/8, PAK2, or ERK1/2 (Cell Signaling Technology). Membranes were then rinsed three times for 5 min each in dH2O, and incubated with anti-rabbit secondary antibody conjugated with horseradish peroxidase (diluted at 1/2000 in blocking buffer; GE Healthcare-Amersham Biosciences). After an additional three rinses for 5 min each in dH2O, the membranes were incubated for 5 min at ambient temperature with the enhanced chemiluminescence substrate (Thermo Fisher Scientific-Pierce Biotechnology), exposed to film, and developed.
(In general: In western blotting, separated proteins are transferred to a membrane and probed.)

Experiment [2] deals with bone morphogenic protein-activated Smad1/5/8 signaling. Put plainly: Western blot for phosphorylated Smad1/5/8 (alternate bone morphogenic protein-activated signaling) in peripheral macrophages. Format: cell-based, mouse. To be noted: for ratio of phospho-Smad1/5/8 to phospho-Smad2/3: ALK5 inhibitor treatment alone, 0.1, 1.0 or 10.0 μM, peripheral macrophages (FIG. 9A). As to the method: as §1

The subject of another experiment is peripheral macrophages. Put plainly: Aβ phagocytosis assay, Aβ488 pulse-chase, confocal microscopy. In kind it is cell-based, mouse. To be noted: primary macrophages with ALK5 inhibitor 1 h, pulsed 4 h with pre-aggregated Aβ488, chased 15 min (FIG. 9B-9C). As to the method:
FIG. 9, comprising FIGS. 9A-9F, is a series of images depicting Activin-like kinase (ALK) inhibition increases the ratio of phospho-SMAD1/5/8 to phospho-SMAD2/3 and promotes macrophage Aβ phagocytosis. FIG. 9A depicts peripheral MΦ pre-treated with a dose range (0.1, 1.0, or 10.0 μM) of ALK5 inhibitors (SB-505124 or SB-431542) for 1 h and then cultured in the presence or absence of recombinant TGF-β1 (5 ng/mL) for 30 min as indicated. Upper panels show Western blots for phospho (p) or total forms of SMAD2/3 or SMAD1/5/8. Lower panel is a histogram showing the ratio of pSMAD1/5/8 to pSMAD2/3. […] FIG. 9C depicts quantification of confocal images (n=3 randomly selected 10× magnification fields per group, group means±s.d.), and Aβ488-labeled area is shown in the upper graph, and numbers of Aβ488 phagocytic cells/field are shown in the lower graph. FIGS. 9D-9F depict gender-dependent reductions in Aβ levels in Tg2576+ animals and anti-inflammatory responses in brains of crossed mice. Biochemical analyses of (FIG. 9D) detergent-soluble and (FIG. 9E) guanidine HCl-soluble Aβ1-42 and Aβ1-42/Aβ1-40 in male vs. female Tg2576 positive mice (irrespective of CD11c-DNR transgene status). FIG. 9F depicts Q-PCR results for Tnfa (left) or Il10 (right) expression (relative to Hprt1) shown for four groups of mice, and statistical comparisons vs. wild-type mice. […]

Experiment [3] deals with p21-activated kinase 2 (PAK2). In words: Western blot for phosphorylated PAK2 in peripheral macrophages. Format: cell-based, mouse. As to conditions: wild-type peripheral macrophages; for PAK2 phosphorylation: 30 min, TGF-β1 5 ng/mL alone, BMP-2 50-200 ng/mL or BMP-4 12.5-50 ng/mL (FIG. 12B). The method, then:
Cortical microglia were isolated from neonatal (1-2 day-old) CD11c-DNR or wild-type C57BL/6 mice according to previously published methods (Tan et al., 1999 Science 286: 2352-2355; Town et al., 2006 J. Immunol, 176: 3804-3812), Briefly, brains were isolated under sterile conditions and cerebral cortices were incubated in tripsin-EDTA (Invitrogen-Gibco) for 15 min at 37° C. Complete RPMI 1640 medium (supplemented with 10% FCS and 1 mM penicillin-streptomycin) was then added and brains were dissociated by trituration. Subsequently, cerebral cortex material was plated in 25 cm^2 flasks (Fisher Scientific), and the media was changed every 2-3 days. When the appearance of microglia was noted (typically 14 days after plating), culture media was exchanged with RPMI 1640 medium supplemented with 5% FCS, and the microglia were isolated by shaking in an incubator-shaker at 200 rpm for 2 h at 37° C. Peripheral MΦ were isolated from adult CD11c-DNR or wild-type C57BL/6 mice according to standard immunological methods by intraperitoneally (i.p.) injecting mice with 900 μL of 3% (w/v) sterile thioglycollate solution diluted in PBS. Four days later, mice were injected i.p. with 10 mL of ice-cold PBS for peritoneal lavage. Peripheral MΦ were then plated with complete medium (DMEM supplemented with 10% FCS and 1 mM penicillin streptomycin) and allowed to rest overnight.
Microglia or peripheral MΦ from wild-type or CD11c-DNR mice were plated at 1×10^6 cells/well in 6-well tissue culture plates (BD Biosciences-Falcon) containing complete RPMI 1640 media or complete DMEM, respectively. These cells were then treated with a dose-range of recombinant TGF-β1 (R&D Systems; 1, 5, or 10 ng/mL) in the presence or absence of lipopolysachharide (LPS, 50 ng/mL) for 30 min. […] Protein concentration was determined using the Bradford method, and aliquots corresponding to 50 μg of protein were run out on 12% Nu-PAGE™ polyacrylamide gels (Invitrogen) and proteins were transferred electrophoretically to Immobilon-P polyvinylidene difluoride membranes (Millipore). […]

For a further experiment, the system named is microglia. To be noted: exogenous addition of TGF-β1 to microglia (Wyss-Coray et al., 2001); cited from earlier work.
Where [4] appears, read: peripherally isolated macrophages, exogenous TGF-β1 5 ng/mL, 30 min (FIG. 9A).
The mark [5] stands for this setting: wild-type peripheral macrophages, 30 min, TGF-β1 5 ng/mL alone, BMP-2 50-200 ng/mL or BMP-4 12.5-50 ng/mL (FIG. 12B).

In the case of `NC(=O)c1ccc(-c2nc(-c3ccc4c(c3)OCO4)c(-c3ccccn3)[nH]2)cc1` [SB-431542, reference compound], the “TGF-β1-induced Smad2/3 phosphorylation” value in experiment [1] is reported as “blocked by ALK5 inhibition in a dose-dependent manner”. In addition, the “ratio of phospho-Smad1/5/8 to phospho-Smad2/3” value in experiment [2] is given as “increased”. In the experiment on peripheral macrophages, the “macrophage Aβ phagocytosis (Aβ488-labeled area, Aβ488 phagocytic cells/field)” value is listed as “increased Aβ phagocytosis in a dose-dependent fashion”.
As for `Cc1cccc(-c2[nH]c(C(C)(C)C)nc2-c2ccc3c(c2)OCO3)n1` [SB-505124, reference compound], the “TGF-β1-induced Smad2/3 phosphorylation” value in experiment [1] is reported as “blocked by ALK5 inhibition in a dose-dependent manner”. In experiment [2], the “ratio of phospho-Smad1/5/8 to phospho-Smad2/3” value was “increased”. For the same molecule, in the experiment on peripheral macrophages, the “macrophage Aβ phagocytosis (Aβ488-labeled area, Aβ488 phagocytic cells/field)” value was “increased Aβ phagocytosis in a dose-dependent fashion”.
On to “TGF-β1: recombinant TGF-β1 (R&D Systems), cytokine”, for which the “phosphorylated Smad2/3 after TGF-β1 challenge” value in experiment [1] (CD11c-DNR macrophages) is given as “nonresponsive”; in experiment [1] (CD11c-DNR microglia) it was “responded to challenge”; in experiment [1] (wild-type microglia and macrophages), “showed phosphorylated Smad2/3”. The Smad2/3 phosphorylation result in experiment [1] (TGF-β1 5 ng/mL added to the BMP treatment conditions, wild-type peripheral macrophages) is reported as “further promoted”; in experiment [1] (setting [4]), “increased phosphorylation”; in experiment [1] (setting [5]) it was “promoted Smad2/3 phosphorylation”. The Smad1/5/8 phosphorylation entry in experiment [2] (CD11c-DNR macrophages, exogenous TGF-β1 and LPS together (FIG. 7B)) was “further augmented”; in experiment [2] (setting [4]), “increased phosphorylation”; in experiment [2] (setting [5]), “little impact”. Moreover, the “BMP-induced PAK2 phosphorylation” value in experiment [3] (TGF-β1 5 ng/mL added to the BMP treatment conditions) is recorded as “inhibited”. The PAK2 phosphorylation result in experiment [3] is recorded as “little impact”. In addition, the “Aβ uptake by microglia” value with microglia was “promotes increased Aβ uptake”.

B1: BMP-4: recombinant BMP-4, bone morphogenic protein (protein, UniProt P12644 293-408, looked up)
Bone morphogenetic protein 4: SPKHHSQRARKKNKNCRRHSLYVDFSDVGWNDWIVAPPGYQAFYCHGDCPFPLADHLNSTNHAIVQTLVNSVNSSIPKACCVPTELSAISMLYLDEYDKVVLKNYQEMVVEGCGCR
For B1, the Smad2/3 phosphorylation result in experiment [1] (setting [5]) is recorded as “did not impact”. Further, in experiment [2] (BMP monotreatment compared with TGF-β1 treatment alone, wild-type peripheral macrophages), the “ratio of pSmad1/5/8 to pSmad2/3” value is listed as “increased”. The Smad1/5/8 phosphorylation result in experiment [2] (setting [5]) is given as “promoted”. The PAK2 phosphorylation entry in experiment [3] is recorded as “promoted”.

Values taken from patent publication US9095126B2, “Targeting TGF-β as a therapy for Alzheimer's disease” (Yale University, priority 2008, dated 2015).
